Test results as given in US8133847B2, “Pyrido[2,3-B]pyrazine derivatives useful as herbicidal compounds” (Syngenta Limited, priority 2006, dated 2012).

How the values were obtained:
Test in all cases: Example B1 herbicidal action, post-emergence, 96-cell seed trays, climatic chamber
Type in all cases: in vivo
[1] = tested on: Amaranthus retroflexus (AMARE); settings: Application post-emergence, 1000 mg/l spray equivalent to 1000 g/ha, evaluated after 9 days
Method in brief: (§1)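 Plants at 8–9 days post-sowing (23/17 °C, 13 h light, 50–60% humidity) sprayed post-emergence with 1000 mg/l active ingredient in 10% DMSO, equivalent to 1000 g/ha. Grown on at 24/19 °C, watered twice daily; damage scored after 9 days (0 = none, 100 = total).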

Solanum nigrum (SOLNI) = settings: Application post-emergence, 1000 mg/l spray equivalent to 1000 g/ha, evaluated after 9 days (100=total damage to plant, 0=no damage to plant)
Method in brief: as §1

Stellaria media (STEME) = settings: Application post-emergence, 1000 mg/l spray equivalent to 1000 g/ha, evaluated after 9 days (100=total damage to plant, 0=no damage to plant)
Method in brief: as §1

[2] = tested on: Nasturtium officinale (NAAOF); parameters: scale not given here; settings: Application post-emergence, 1000 mg/l spray equivalent to 1000 g/ha, evaluated after 9 days (100=total damage to plant, 0=no damage to plant)
Method in brief: as §1

SMILES	damage to plant, Amaranthus retroflexus (AMARE) [1]	damage to plant, Solanum nigrum (SOLNI) (Solanum nigrum (SOLNI))	damage to plant, Stellaria media (STEME) (Stellaria media (STEME))	damage to plant, Nasturtium officinale (NAAOF) [2]
CCn1c(=O)c(-c2ccc(Cl)cc2Cl)c(OC(=O)C(C)(C)C)c2nccnc21 [Compound C62]	7	1	8	8
CC(C)C(=O)Oc1c(-c2ccc(Cl)cc2Cl)c(=O)n(C)c2nccnc12 [Compound C63]	5	5	8	9
CCn1c(=O)c(-c2ccc(Cl)cc2Cl)c(OC(=O)C(C)C)c2nccnc21 [Compound C64]	6	8	10	10
CCc1cc(C)cc(CC)c1-c1c(OC(=O)C(C)C)c2nccnc2n(C)c1=O [Compound C65]	4	3	6	7
CCn1c(=O)c(-c2cccc(Cl)c2)c(OC(C)=O)c2nccnc21 [Compound C66]	0	0	7	7
CCn1c(=O)c(-c2ccc(Cl)cc2)c(OC(C)=O)c2nccnc21 [Compound C67]	4	0	6	8
CC(C)C(=O)Oc1c(-c2cc(Cl)cc(Cl)c2Cl)c(=O)n(C)c2nccnc12 [Compound C68]	0	0	5	5
COc1ccccc1-c1c(OC(=O)C(C)C)c2nccnc2n(C)c1=O [Compound C69]	0	0	6	5
CCn1c(=O)c(-c2ccccc2OC)c(OC(=O)C(C)C)c2nccnc21 [Compound C70]	0	0	3	4
CC(C)C(=O)Oc1c(-c2c(F)ccc(F)c2Cl)c(=O)n(C)c2ncc[n+]([O-])c12 [Compound C71, isobutyric acid 7-(2-chloro-3,6-difluorophenyl)-5-methyl-6-oxo-1-oxy-5,6-dihydropyrido[2,3-]pyrazin-8-yl ester]	0	2	8	7
CCn1c(=O)c(-c2ccc(Cl)c(Cl)c2)c(OC(C)=O)c2nccnc21 [Compound C72]	0	0	2	8
CC#CCOC(=O)Oc1c(-c2c(F)ccc(F)c2Cl)c(=O)n(C)c2nccnc12 [Compound C73]	4	0	4	6
Cc1cc(C)c(-c2c(OC(=O)C(C)C)c3nccnc3n(C)c2=O)c(C)c1 [Compound C75]	3	7	7	6
CC(C)C(=O)Oc1c(-c2c(Cl)cccc2C(F)(F)F)c(=O)n(C)c2nccnc12 [Compound C76]	7	4	6	6
CCn1c(=O)c(-c2cccc(C(F)(F)F)c2Cl)c(OC(=O)C(C)C)c2nccnc21 [Compound C78]	6	4	6	8
CC(C)C(=O)Oc1c(-c2c(Cl)ccc(Cl)c2Cl)c(=O)n(C)c2nccnc12 [Compound C79]	6	6	7	5
CCn1c(=O)c(-c2c(Cl)cccc2C(F)(F)F)c(OC(=O)C(C)C)c2nccnc21 [Compound C80]	7	2	8	6
CCn1c(=O)c(-c2c(C)cc(C)cc2C)c(OC(C)=O)c2nccnc21 [Compound C81]	5	4	8	8
CC(C)C(=O)Oc1c(-c2c(F)ccc(F)c2Cl)c(=O)n(C)c2nc(Cl)cnc12 [Compound C82]	4	0	0	0
CC(C)C(=O)Oc1c(-c2c(F)ccc(F)c2Cl)c(=O)n(C)c2ncc(Cl)nc12 [Compound C83]	0	1	0	0
Cn1c(=O)c(-c2c(F)ccc(F)c2Cl)c(OC(=O)c2ccccc2)c2nccnc21 [Compound C84]	6	8	7	5
COc1cccc(C(=O)Oc2c(-c3c(F)ccc(F)c3Cl)c(=O)n(C)c3nccnc23)c1 [Compound C85]	5	4	4	3
Cn1c(=O)c(-c2c(F)ccc(F)c2Cl)c(OC(=O)c2ccco2)c2nccnc21 [Compound C86]	7	7	6	6
CCC(C)C(=O)Oc1c(-c2c(F)ccc(F)c2Cl)c(=O)n(C)c2nccnc12 (centres unmarked) [Compound C87]	6	6	2	4
CCC(CC)C(=O)Oc1c(-c2c(F)ccc(F)c2Cl)c(=O)n(C)c2nccnc12 [Compound C89]	5	4	5	5
CC(C)=CC(=O)Oc1c(-c2c(F)ccc(F)c2Cl)c(=O)n(C)c2nccnc12 [Compound C90]	3	8	7	6
Cn1c(=O)c(-c2c(F)ccc(F)c2Cl)c(OC(=O)c2cccs2)c2nccnc21 [Compound C91]	7	8	8	4
CCCCC(CC)C(=O)Oc1c(-c2c(F)ccc(F)c2Cl)c(=O)n(C)c2nccnc12 (centres unmarked) [Compound C92]	5	7	6	2
CCC(C(=O)Oc1c(-c2c(F)ccc(F)c2Cl)c(=O)n(C)c2nccnc12)c1ccccc1 (centres unmarked) [Compound C94]	5	4	6	7
